The values that follow come from ChEMBL document CHEMBL1135504, “Structure-activity relationships of the melanocortin tetrapeptide Ac-His-DPhe-Arg-Trp-NH(2) at the mouse melanocortin receptors: part 2 modifications at the Phe position” (J Med Chem, 2002).

The term pEC50 denotes −log10 of the EC50, conventionally taken in molar units. In general, pKi refers to the negative decadic logarithm of the Ki, by convention in mol/L. High values mean a small Ki, low ones a large Ki.

pEC50, pKi: −log10 of the molar value. Where a SMILES comes first, the peptide text is derived from it.

The target of one test is Melanocortin receptor 5 (Mus musculus, UniProt P41149). Put plainly: Agonist activity towards mouse Melanocortin-5 receptor (mMC5R). It counts as functional.
Melanocortin receptor 5, sequence (P41149 whole entry): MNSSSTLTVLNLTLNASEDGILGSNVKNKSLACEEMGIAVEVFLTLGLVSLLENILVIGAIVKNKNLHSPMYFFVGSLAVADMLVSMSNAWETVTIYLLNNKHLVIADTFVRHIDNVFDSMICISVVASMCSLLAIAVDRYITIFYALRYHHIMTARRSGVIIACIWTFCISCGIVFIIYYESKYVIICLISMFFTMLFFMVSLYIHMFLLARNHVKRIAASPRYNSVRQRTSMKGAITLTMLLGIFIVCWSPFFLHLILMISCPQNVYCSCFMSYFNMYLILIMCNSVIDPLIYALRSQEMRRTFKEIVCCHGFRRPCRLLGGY
Test [1] addresses Melanocyte-stimulating hormone receptor (Mus musculus, UniProt Q01727). Put plainly: Agonist activity to the mouse Melanocortin-1 receptor (mMC1R). Format: functional.
In another test the target is Melanocortin receptor 4 (Mus musculus, UniProt P56450). Put plainly: Agonist activity to the mouse Melanocortin-4 receptor (mMC4R). It counts as functional.
Melanocortin receptor 4, sequence (P56450 whole entry): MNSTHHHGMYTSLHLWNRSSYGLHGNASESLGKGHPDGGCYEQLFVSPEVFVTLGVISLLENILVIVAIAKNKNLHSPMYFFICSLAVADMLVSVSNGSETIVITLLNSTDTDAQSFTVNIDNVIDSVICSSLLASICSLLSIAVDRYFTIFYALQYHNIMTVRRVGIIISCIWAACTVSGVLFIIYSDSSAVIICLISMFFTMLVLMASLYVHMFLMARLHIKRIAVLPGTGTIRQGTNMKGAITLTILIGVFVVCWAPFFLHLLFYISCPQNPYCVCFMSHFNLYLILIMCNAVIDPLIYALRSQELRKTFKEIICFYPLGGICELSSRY
The target of test [2] is T1, Melanocortin receptor 3 (Mus musculus, UniProt P33033). Put plainly: Agonist activity to the mouse Melanocortin-3 receptor (mMC3R). Format: functional.
T1 sequence (P33033 whole entry): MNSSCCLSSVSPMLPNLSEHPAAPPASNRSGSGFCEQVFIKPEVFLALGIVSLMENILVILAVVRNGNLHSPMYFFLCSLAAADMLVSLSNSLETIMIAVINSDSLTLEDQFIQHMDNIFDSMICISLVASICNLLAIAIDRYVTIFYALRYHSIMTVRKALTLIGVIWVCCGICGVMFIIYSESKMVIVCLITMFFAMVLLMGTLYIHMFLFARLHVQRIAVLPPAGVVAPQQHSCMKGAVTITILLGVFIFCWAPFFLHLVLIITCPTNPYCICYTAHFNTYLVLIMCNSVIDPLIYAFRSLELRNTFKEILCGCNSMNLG
Test [3] addresses T1, Melanocortin receptor 3. Put plainly: Agonist activity of compound towards mouse Melanocortin-3 receptor (mMC3R); partial agonist. Format: functional. The note with it: read-out: pA2 (converted).
Test [4] addresses T1, Melanocortin receptor 3. Put plainly: Binding constant (Ki) at mouse Melanocortin-3 receptor.

Melanocyte-stimulating hormone receptor, sequence (Q01727 whole entry): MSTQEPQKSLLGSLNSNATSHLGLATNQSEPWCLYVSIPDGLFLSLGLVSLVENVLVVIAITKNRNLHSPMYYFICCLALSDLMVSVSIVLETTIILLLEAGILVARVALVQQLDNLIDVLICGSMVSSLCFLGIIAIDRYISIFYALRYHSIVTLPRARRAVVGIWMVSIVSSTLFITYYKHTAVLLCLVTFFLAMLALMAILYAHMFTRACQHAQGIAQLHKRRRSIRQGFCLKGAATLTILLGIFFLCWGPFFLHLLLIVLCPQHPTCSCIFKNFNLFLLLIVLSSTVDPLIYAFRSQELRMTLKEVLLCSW

Regarding `CC(=O)N[C@@H](Cc1c[nH]cn1)C(=O)N[C@@H](CCc1ccccc1)C(=O)N[C@@H](CCCN=C(N)N)C(=O)N[C@@H](Cc1c[nH]c2ccccc12)C(N)=O`, the pEC50 at Melanocortin receptor 5 was 4.93; in test [1], 4.48; at Melanocortin receptor 4 it was below 4.00; on Melanocortin receptor 3 [2], below 4.00.

Turning to `CC(=O)N[C@@H](Cc1cnc[nH]1)C(=O)N[C@H](Cc1ccc2ccccc2c1)C(=O)N[C@@H](CCCNC(=N)N)C(=O)N[C@@H](Cc1c[nH]c2ccccc12)C(N)=O`, the negative-log EC50 (pEC50) is 7.46 on Melanocortin receptor 5 and 6.78 in test [1]. Besides, the Kb at Melanocortin receptor 3 [3] is 0.295 µM. In addition, the negative logarithm of the Ki (pKi) on Melanocortin receptor 3 [4] was 6.53.

`CC(=O)N[C@@H](Cc1cnc[nH]1)C(=O)N[C@@H](Cc1cccnc1)C(=O)N[C@@H](CCCNC(=N)N)C(=O)N[C@@H](Cc1c[nH]c2ccccc12)C(N)=O`: the negative-log EC50 (pEC50) at Melanocortin receptor 5 is 4.44; in test [1], 4.64; at Melanocortin receptor 4, below 4.00; at Melanocortin receptor 3 [2] it was below 4.00.

With `CC(=O)N[C@@H](Cc1c[nH]cn1)C(=O)N[C@@H](Cc1ccc2ccccc2c1)C(=O)N[C@@H](CCCN=C(N)N)C(=O)N[C@@H](Cc1c[nH]c2ccccc12)C(N)=O`, the negative logarithm of the EC50 (pEC50) at Melanocortin receptor 5 was 5.13; in test [1], 4.66; on Melanocortin receptor 3 [2] it was below 4.00.

For `CC(=O)N[C@@H](Cc1cnc[nH]1)C(=O)N[C@H](Cc1ccc(O)cc1)C(=O)N[C@@H](CCCNC(=N)N)C(=O)N[C@@H](Cc1c[nH]c2ccccc12)C(N)=O`, the pEC50 was 6.20 at Melanocortin receptor 5, 5.49 in test [1], 5.62 on Melanocortin receptor 4 and 4.47 at Melanocortin receptor 3 [2].

Take `CC(=O)N[C@@H](Cc1c[nH]cn1)C(=O)N[C@@H](C(=O)N[C@@H](CCCN=C(N)N)C(=O)N[C@@H](Cc1c[nH]c2ccccc12)C(N)=O)C(c1ccccc1)c1ccccc1`: the negative logarithm of the EC50 (pEC50) at Melanocortin receptor 5 was 5.37; in test [1], 5.82; at Melanocortin receptor 4, 5.30; on Melanocortin receptor 3 [2], below 4.00.

`CC(=O)N[C@@H](Cc1cnc[nH]1)C(=O)N[C@H](C(=O)N[C@@H](CCCNC(=N)N)C(=O)N[C@@H](Cc1c[nH]c2ccccc12)C(N)=O)c1ccccc1`: the pEC50 on Melanocortin receptor 5 is 5.40; in test [1] it was 4.83; on Melanocortin receptor 4, 4.39; on Melanocortin receptor 3 [2], 4.36.

With `CC(=O)N[C@@H](Cc1c[nH]cn1)C(=O)N[C@@H](C(=O)N[C@@H](CCCN=C(N)N)C(=O)N[C@@H](Cc1c[nH]c2ccccc12)C(N)=O)c1ccccc1`, the values for the negative-log EC50 (pEC50) (in test [1]; on Melanocortin receptor 4; on Melanocortin receptor 3 [2]) were 4.77, below 4.00 and below 4.00, respectively.

Regarding `CC(=O)N[C@@H](Cc1c[nH]cn1)C(=O)N[C@H](Cc1ccc(-c2ccccc2)cc1)C(=O)N[C@@H](CCCN=C(N)N)C(=O)N[C@@H](Cc1c[nH]c2ccccc12)C(N)=O`, the pEC50 on Melanocortin receptor 5 is 7.94; in test [1] it was 7.55; on Melanocortin receptor 4 it was 7.16; on Melanocortin receptor 3 [2], 5.69.

Consider `CC(=O)N[C@@H](Cc1cnc[nH]1)C(=O)N[C@@H](Cc1cccc2ccccc12)C(=O)N[C@@H](CCCNC(=N)N)C(=O)N[C@@H](Cc1c[nH]c2ccccc12)C(N)=O`, for which the negative-log EC50 (pEC50) at Melanocortin receptor 5 is 4.95; in test [1], 4.82; on Melanocortin receptor 4, below 4.00; on Melanocortin receptor 3 [2] it was below 4.00.

As to `CC(=O)N[C@@H](Cc1cnc[nH]1)C(=O)N[C@H](Cc1cccc2ccccc12)C(=O)N[C@@H](CCCNC(=N)N)C(=O)N[C@@H](Cc1c[nH]c2ccccc12)C(N)=O`, the pEC50 is 7.29 on Melanocortin receptor 5, 6.45 in test [1], 6.52 at Melanocortin receptor 4 and 5.39 at Melanocortin receptor 3 [2].

For `CC(=O)N[C@@H](Cc1c[nH]cn1)C(=O)N[C@H](Cc1c[nH]c2ccccc12)C(=O)N[C@@H](CCCN=C(N)N)C(=O)N[C@@H](Cc1c[nH]c2ccccc12)C(N)=O`, the pEC50 at Melanocortin receptor 5 was 5.16; in test [1], 4.60; at Melanocortin receptor 4 it was below 4.00; on Melanocortin receptor 3 [2], below 4.00.

Consider `CC(=O)N[C@@H](Cc1cnc[nH]1)C(=O)N[C@@H](Cc1ccc(-c2ccccc2)cc1)C(=O)N[C@@H](CCCNC(=N)N)C(=O)N[C@@H](Cc1c[nH]c2ccccc12)C(N)=O`, for which the pEC50 was 5.26 at Melanocortin receptor 5, 4.97 in test [1] and below 4.00 on Melanocortin receptor 3 [2].

`CC(=O)N[C@@H](Cc1cnc[nH]1)C(=O)N[C@@H](Cc1ccncc1)C(=O)N[C@@H](CCCNC(=N)N)C(=O)N[C@@H](Cc1c[nH]c2ccccc12)C(N)=O`: the pEC50 was 5.01 at Melanocortin receptor 5, 4.44 in test [1], 4.61 on Melanocortin receptor 4 and below 4.00 at Melanocortin receptor 3 [2].

With `CC(=O)N[C@@H](Cc1cnc[nH]1)C(=O)N[C@H](CCc1ccccc1)C(=O)N[C@@H](CCCNC(=N)N)C(=O)N[C@@H](Cc1c[nH]c2ccccc12)C(N)=O`, the pEC50 was 5.55 on Melanocortin receptor 5, 5.20 in test [1], 4.95 on Melanocortin receptor 4 and below 4.00 on Melanocortin receptor 3 [2].

For `CC(=O)N[C@@H](Cc1cnc[nH]1)C(=O)N[C@@H](Cc1c[nH]c2ccccc12)C(=O)N[C@@H](CCCNC(=N)N)C(=O)N[C@@H](Cc1c[nH]c2ccccc12)C(N)=O`, the pEC50 on Melanocortin receptor 5 was 4.74; in test [1] it was 4.48; on Melanocortin receptor 4 it was 4.46; at Melanocortin receptor 3 [2] it was below 4.00.

As to `CC(=O)N[C@@H](Cc1cnc[nH]1)C(=O)N[C@H](C(=O)N[C@@H](CCCNC(=N)N)C(=O)N[C@@H](Cc1c[nH]c2ccccc12)C(N)=O)C(c1ccccc1)c1ccccc1`, the negative logarithm of the EC50 (pEC50) at Melanocortin receptor 5 was below 4.00; in test [1] it was 4.72; on Melanocortin receptor 4 it was below 4.00; on Melanocortin receptor 3 [2], below 4.00.

For `CC(=O)N[C@@H](Cc1c[nH]cn1)C(=O)N[C@@H](Cc1ccccc1)C(=O)N[C@@H](CCCN=C(N)N)C(=O)N[C@@H](Cc1c[nH]c2ccccc12)C(N)=O`, the pEC50 at Melanocortin receptor 4 was 8.68.

With `CC(=O)N[C@@H](Cc1c[nH]cn1)C(=O)N1Cc2ccccc2C[C@@H]1C(=O)N[C@@H](CCCN=C(N)N)C(=O)N[C@@H](Cc1c[nH]c2ccccc12)C(N)=O`, the negative logarithm of the EC50 (pEC50) at Melanocortin receptor 5 was below 4.00; in test [1], 4.39; on Melanocortin receptor 4, below 4.00; on Melanocortin receptor 3 [2], below 4.00.

On to `CC(=O)N[C@@H](Cc1c[nH]cn1)C(=O)N1Cc2ccccc2C[C@H]1C(=O)N[C@@H](CCCN=C(N)N)C(=O)N[C@@H](Cc1c[nH]c2ccccc12)C(N)=O`, for which the pEC50 at Melanocortin receptor 5 is 4.67; in test [1] it was 4.27; at Melanocortin receptor 4 it was below 4.00; at Melanocortin receptor 3 [2], below 4.00.

In the case of `CC(=O)N[C@@H](Cc1cnc[nH]1)C(=O)N[C@@H](C)C(=O)N[C@@H](CCCNC(=N)N)C(=O)N[C@@H](Cc1c[nH]c2ccccc12)C(N)=O` (Ac-HARW-NH2), the negative-log EC50 (pEC50) on Melanocortin receptor 5 was below 4.00; in test [1] it was 4.52; at Melanocortin receptor 4, below 4.00; at Melanocortin receptor 3 [2], below 4.00.

In the case of `CC(=O)N[C@@H](Cc1c[nH]cn1)C(=O)N[C@@H](Cc1c[nH]cn1)C(=O)N[C@@H](CCCN=C(N)N)C(=O)N[C@@H](Cc1c[nH]c2ccccc12)C(N)=O` (Ac-HHRW-NH2), the negative-log EC50 (pEC50) on Melanocortin receptor 5 is 4.39; in test [1] it was 4.38; at Melanocortin receptor 4 it was below 4.00; on Melanocortin receptor 3 [2], below 4.00.

Turning to `CC(=O)N[C@@H](Cc1cnc[nH]1)C(=O)N[C@@H](Cc1ccc(O)cc1)C(=O)N[C@@H](CCCNC(=N)N)C(=O)N[C@@H](Cc1c[nH]c2ccccc12)C(N)=O` (Ac-HYRW-NH2), the negative logarithm of the EC50 (pEC50) is 4.49 at Melanocortin receptor 5, 4.21 in test [1], below 4.00 at Melanocortin receptor 4 and below 4.00 on Melanocortin receptor 3 [2].

For the compound `CC(=O)N[C@@H](Cc1c[nH]cn1)C(=O)NC1(C(=O)N[C@@H](CCCN=C(N)N)C(=O)N[C@@H](Cc2c[nH]c3ccccc23)C(N)=O)CCc2ccccc2C1` (stereo in doubt; 25), the negative-log EC50 (pEC50) is 6.58 at Melanocortin receptor 5, 5.63 in test [1], 5.75 on Melanocortin receptor 4 and 5.00 at Melanocortin receptor 3 [2].

Consider `CC(=O)N[C@@H](Cc1c[nH]cn1)C(=O)NC1(C(=O)N[C@@H](CCCN=C(N)N)C(=O)N[C@@H](Cc2c[nH]c3ccccc23)C(N)=O)CCc2ccccc2C1` (stereo in doubt; 26), for which the pEC50 on Melanocortin receptor 5 is 5.68; in test [1] it was 5.24; on Melanocortin receptor 4, 5.15; at Melanocortin receptor 3 [2] it was 5.11.
